Consider two compounds from US8933046B2 (priority 2009, dated 2015).

Series [1] has as its system viral M1 and M2 mRNA (influenza A/WSN/33). The series is classed as cell-based, influenza A virus.
For a further series, the system named is A549 cells. Nature of the series: Influence of TG003 on cell viability (WST-1 assay). The settings on record: TG003 50 μM. Type of series: cell-based, human. Here is the method: FIG. 18|Influence of the chemical CLK1 inhibitor TG003 on cell viability. A549 cells were incubated with TG003 (50 μM, dissolved in DMSO), with DMSO or left untreated. Cell viability was evaluated at the indicated time points using the WST-1 assay, according to the manufacturer's instructions. Shown are the mean values from three replicates. Error bars indicate the standard deviation.
Determination of host cell viability upon siRNA transfection was performed using cell proliferation assay WST-1 (Roche, Mannheim, Germany). WST-1 reagent was added to the cells 48 h after siRNA transfection and incubated at 37° C. for 1.5 h. Absorbance was measured at 460 nm and at the reference wavelength 590 nm. Non-targeting siRNA Allstars and siPLK1 were used as a […].

Series [2] relates to vesicular stomatitis virus (VSV). Type of series: cell-based. Particulars: TG003 50 μM, A549 pretreated 24 h, VSV MOI 0.01, 24 h p.i.
Series [3] concerns viral M1 and M2 protein (influenza A/WSN/33). Type of series: cell-based, influenza A virus.
Series [4] relates to influenza A/Hamburg/04/2009 (H1N1) virus. The series is classed as cell-based.
The test system of series [5] is influenza A/WSN/33 (H1N1) virus. Type of series: cell-based.

Turning to `CCN1/C(=C/C(C)=O)Sc2ccc(OC)cc21` [TG003], in series [1], the “levels of spliced M2 viral RNA” value is listed as “reduced”; the “unspliced M1 and NS1/NS2 viral RNA” value is recorded as “unaffected”. The “toxic effects (cell viability, WST-1)” value in the series on A549 cells is “without exerting detectable toxic effects”. For the same compound, the “replication of vesicular stomatitis virus (VSV)” value in series [2] is on record as “only slightly reduced”. In series [3], the M1 protein levels result is reported as “remained relatively constant” and the M2 protein levels entry was “drastically reduced”.

Regarding WNT3A, in series [4], the “normalised inhibition of infectious virus particles, siRNA1” value is recorded as 0.53; the “normalised inhibition of infectious virus particles, siRNA2” value turned out to be 0.4; the “normalised inhibition of infectious virus particles, siRNA3” value was 0.91; the “normalised inhibition of infectious virus particles, siRNA4” value was 1.1. In addition, in series [5], the “normalised inhibition of infectious virus particles, siRNA1” value is reported as 0.36; the “normalised inhibition of infectious virus particles, siRNA2” value is −0.16; the “normalised inhibition of infectious virus particles, siRNA3” value was 0.64; the “normalised inhibition of infectious virus particles, siRNA4” value is 0.81.
